≈ marks a conversion by molar mass, not a printed value. Like-named read-outs stand apart in the source and are kept apart here.
Tests used:
Assay type in all cases: physicochemical
[1] = high throughput solubility (HT-Solubility); conditions: for water solubility (in words): see FIG. 10
[2] = high throughput permeability (HT-Permeability, log Pe); conditions: PAMPA, Pe in cm/s
[3] = HT-logP o/w, high throughput assay based on artificial liquid membrane permeability
Excerpt: To be absorbed and transported by passive diffusion, drugs must be sufficiently lipophilic to penetrate the lipid cores of membranes, but not too lipophilic that they get retained and accumulated there. The lipophilictity of a compound is expressed by the octanol/water partition coefficient or distribution coefficient. A first approximation of substance polarity can either be given by computer assisted calculations giving Clog P values or by measurement of the partition coefficients in high-throughput assays (HT-log P o/w) (Faller et al., 2004; Wohnsland et al., 2001).
Octanol/water partition coefficients are measured in a high throughput assay based on artificial liquid membrane permeability. […] Still many approaches to calculate log P values are limited due to a lack of parameterization of certain fragments and fail with increasing molecular weight which implicates higher structural complexity. Similar problems and failures are observed in chromatographic determinations of log P: Peptides might undergo structural changes driven by interactions with the stationary phase. Decisive interactions between the stationary phase and the defolded analytes are therefore also based on the linear peptide sequence. For this reason measured HT-log P o/w values based on chromatographic assays employing stationary phases may lead to erroneous results.

[4] = pH 1, pH 1.0, read-out: HT-Solubility pH 1.0
[5] = pH 6.8, pH 6.8, read-out: HT-Solubility pH 6.8
[6] = pH 4, pH 4.0, read-out: HT-Permeability logPe pH 4.0 (converted)
[7] = pH 1.0, read-out: HT-Solubility pH 1.0
[8] = pH 6.8, read-out: HT-Solubility pH 6.8
[9] = pH 4.0, read-out: HT-Permeability logPe pH 4.0 (converted)
[10] = octanol/water; read-out: HT LogP ohw
[11] = octanol/water, read-out: HT LogP ohw
[12] = pH 8, pH 8.0, read-out: HT-Permeability logPe pH 8.0 (converted)
[13] = pH 6.8, pH 6.8, read-out: HT-Permeability logPe pH 6.8 (converted)

Structure (SMILES)	solubility [1, 4]	solubility [1, 5]	Papp [2, 6]	logP [3, 11]	also measured
C[C@H]1OC(=O)C[C@H]1NC(=O)C[C@H](CCCCN)NC(=O)[C@@H](Cc1c[nH]c2ccccc12)NC(=O)C[C@H](Cc1ccccc1)NC(=O)c1ccccc1 [Compound 6, Benzoyl-(S)-β^3-HPhe-(R)-Trp-(S)-β^3-HLys-(R)-4-amino-(R)-5-methyl-dihydro-furan-2-one]					solubility [1, 7]: 142 µg/mL (≈ 200 µM); solubility [1, 8]: 14.2 µg/mL (≈ 20 µM); Papp [2, 9]: 0.1 ×10⁻⁶ cm/s; logP [3, 10]: 2.8
CC(=O)N[C@H](CC(=O)N[C@H](Cc1c[nH]c2ccccc12)C(=O)N[C@@H](CCCCN)CC(=O)N[C@@H]1CC(=O)O[C@@H]1C)Cc1ccccc1 [Compound 7, Ac—(S)-β^3-HPhe-(R)-Trp-(S)-β^3-HLys-(R)-4-amino-(R)-5-methyl-dihydro-furan-2-one]	129 µg/mL (≈ 200 µM)	129 µg/mL (≈ 200 µM)			
CCCCCCCCC(=O)N[C@H](CC(=O)N[C@H](Cc1c[nH]c2ccccc12)C(=O)N[C@@H](CCCCN)CC(=O)N[C@@H]1CC(=O)O[C@@H]1C)Cc1ccccc1 [Compound 11]	14.9 µg/mL (≈ 20 µM)	14.9 µg/mL (≈ 20 µM)	0.1 ×10⁻⁶ cm/s	3.9	
C[C@H]1OC(=O)C[C@H]1NC(=O)C[C@H](CCCCN)NC(=O)[C@@H](Cc1c[nH]c2ccccc12)NC(=O)C[C@H](Cc1ccccc1)NC(=O)C12CC3CC(CC(C3)C1)C2 [Compound 13, Adamantoyl-(S)-β^3-HPhe-(R)-Trp-(S)-β^3-HLys-(R)-4-amino-(R)-5-methyl-dihydro-furan-2-one]	153 µg/mL (≈ 200 µM)	76.7 µg/mL (≈ 100 µM)	3.16 ×10⁻⁶ cm/s	2.8	water solubility (in words) [1]: good water solubility; Papp [2, 12]: 10 ×10⁻⁶ cm/s
C[C@@H](O)[C@@H](CC(N)=O)NC(=O)C[C@H](CCCCN)NC(=O)[C@@H](Cc1c[nH]c2ccccc12)NC(=O)C[C@H](Cc1ccccc1)NC(=O)c1ccccc1 [Compound 14, Benzoyl-(S)-β^3-HPhe-(R)-Trp-(S)-β^3-HLys-(R), (R)—HThr-NH2]					solubility [1, 7]: 145 µg/mL (≈ 200 µM); solubility [1, 8]: 14.5 µg/mL (≈ 20 µM); Papp [2, 9]: 0.1 ×10⁻⁶ cm/s; logP [3, 10]: 2.6
CC(C)[C@@H](CC(=O)N(C)CCc1ccccc1)NC(=O)C[C@H](CCCCN)NC(=O)[C@@H](Cc1c[nH]c2ccccc12)NC(=O)C[C@H](Cc1ccccc1)NC(=O)CCc1ccccc1 [Compound 23, Dihydrocinnemoyl-(S)-β^3-HPhe-(R)-Trp-(S)-β^3-HLys-(R)-β^3-Leu-methyl-phenethyl-amide]	17.4 µg/mL (≈ 20 µM)	17.4 µg/mL (≈ 20 µM)	0.1 ×10⁻⁶ cm/s	5.9	
C[C@@H](O)[C@@H](CC(N)=O)NC(=O)C[C@H](CCCCN)NC(=O)[C@@H](Cc1c[nH]c2ccccc12)NC(=O)C[C@H](Cc1ccccc1)NC(=O)C1CCCCC1 [Compound 26, Cyclohexanoyl-(S)-β^3-HPhe-(R)-Trp-(S)-β^3-HLys-(R), (R)—HThr-NH2]	7.3 µg/mL (≈ 9.97 µM)	1.5 µg/mL (≈ 2.05 µM)		3.3	
CC(C)[C@@H](CC(=O)N(C)CCc1ccccc1)NC(=O)C[C@H](CCCCN)NC(=O)[C@@H](Cc1c[nH]c2ccccc12)NC(=O)C[C@H](Cc1ccccc1)NC(=O)C12CC3CC(CC(C3)C1)C2 [Compound 27, Adamantoyl-(S)-β^3-HPhe-(R)-Trp-(S)-β^3-HLys-(R)-β^3-Leu-methyl-phenethyl-amide]	45 µg/mL (≈ 50 µM)	9 µg/mL (≈ 10 µM)			
C[C@H]1OC(=O)C[C@H]1NC(=O)C[C@H](CCCCN)NC(=O)[C@@H](Cc1c[nH]c2ccccc12)NC(=O)C[C@@H](N)Cc1ccccc1 [Compound 28, (S)-β^3-HPhe-(R)-Trp-(S)-β^3-HLys-(R)-4-amino-(R)-5-methyl-dihydro-furan-2-one]	60.5 µg/mL (≈ 100 µM)	60.5 µg/mL (≈ 100 µM)		3.5	Papp [2, 12]: 3.16 ×10⁻⁶ cm/s
C[C@H]1OC(=O)C[C@H]1NC(=O)C[C@H](CCCCN)NC(=O)[C@@H](Cc1c[nH]c2ccccc12)NC(=O)C[C@@H](N)Cc1ccccc1 [Compound 29]					HT-Solubility pH 1.0 ([1]; pH 1.0): 0.121 g 1-1; HT-Solubility pH 6.8 ([1]; pH 6.8): 0.121 g 1-1; HT LogP ohw ([3]; octanol/water): 3.3
CC(=O)N[C@H](CC(=O)N[C@H](Cc1c[nH]c2ccccc12)C(=O)N[C@@H](CCCCN)CC(=O)NC1CCCC1)Cc1ccccc1 [Compound 31, Ac—(S)-β^3-HPhe-(R)-Trp-(S)-β^3-HLys-cyclopentyl-amide]	123 µg/mL (≈ 200 µM)	123 µg/mL (≈ 200 µM)	2.51 ×10⁻⁶ cm/s	2.8	Papp [2, 13]: 2 ×10⁻⁶ cm/s; Papp [2, 12]: 1 ×10⁻⁶ cm/s
C[C@@H](O)[C@@H](CC(N)=O)NC(=O)C[C@H](CCCCN)NC(=O)[C@@H](Cc1c[nH]c2ccccc12)NC(=O)C[C@@H](N)Cc1ccccc1 [Compound 36, (S)-β^3-HPhe-(R)-Trp-(S)-β^3-HLys-(R), (R)—HThr-NH2]	124 µg/mL (≈ 200 µM)	124 µg/mL (≈ 200 µM)	1.58 ×10⁻⁶ cm/s		Papp [2, 12]: 2 ×10⁻⁶ cm/s
CCCCCNC(=O)C[C@H](CCCCN)NC(=O)[C@@H](Cc1c[nH]c2ccccc12)NC(=O)C[C@H](Cc1ccccc1)NC(C)=O [Compound 45, Ace-(S)-β^3-HPhe-(R)-Trp-(S)-β^3-HLys-pentyl-amide]					HT-Solubility pH 1.0 ([1]; pH 1.0): 0.1236 g 1-1; HT-Solubility pH 6.8 ([1]; pH 6.8): 0.0619 g 1-1; water solubility (in words) [1]: medium to good; HT LogP ohw ([3]; octanol/water): 3.2
CC(=O)N[C@H](CC(=O)N[C@H](Cc1c[nH]c2ccccc12)C(=O)N[C@@H](CCCCN)CC(N)=O)Cc1ccccc1 [Compound 58, Ace-(S)-β^3-HPhe-(R)-Trp-(S)-β^3-HLys-NH2]	110 µg/mL (≈ 200 µM)	110 µg/mL (≈ 200 µM)	1 ×10⁻⁶ cm/s		Papp [2, 13]: 5.01 ×10⁻⁶ cm/s
CCC(=O)N[C@H](CC(=O)N[C@H](Cc1c[nH]c2ccccc12)C(=O)N[C@@H](CCCCN)CC(N)=O)Cc1ccccc1 [Compound 60, Propionyl-(S)-β^3-HPhe-(R)-Trp-(S)-β^3-HLys-NH2]	112 µg/mL (≈ 200 µM)	112 µg/mL (≈ 200 µM)	3.16 ×10⁻⁶ cm/s		Papp [2, 13]: 7.94 ×10⁻⁶ cm/s; Papp [2, 12]: 1.26 ×10⁻⁶ cm/s
CCCCCN(C)C(=O)C[C@H](CCCCN)NC(=O)[C@@H](Cc1c[nH]c2ccccc12)N(C)C(=O)C[C@H](Cc1ccccc1)NC(=O)CC [Compound 63, Propionyl-(S)-β^3-HPhe-(R)—N-Me-Trp-(S)-β^3-HLys-methyl-pentyl-amide]	132 µg/mL (≈ 200 µM)	132 µg/mL (≈ 200 µM)			water solubility (in words) [1]: highest solubility values; logP [3, 10]: 3.9
CCCCCCN(C)C(=O)C[C@H](CCCCN)NC(=O)[C@@H](Cc1c[nH]c2ccccc12)N(Cc1ccccc1)C(=O)C[C@H](Cc1ccccc1)NC(=O)CC [Compound 69, Propionyl-(S)-β^3-HPhe-(R)—N-Benzyl-Trp-(S)-β^3-HLys-methyl-hexyl-amide]					HT-Solubility pH 1.0 ([1]; pH 1.0): 0.0751 g 1-1; HT-Solubility pH 6.8 ([1]; pH 6.8): 0.015 g 1-1; water solubility (in words) [1]: does not allow for good water solubilities; HT LogP ohw ([3]; octanol/water): 5.1

Continued, in another order:

solubility [1, 4]	solubility [1, 5]	Papp [2, 6]	logP [3, 11]	Structure (SMILES)	also measured
13.3 µg/mL (≈ 20 µM)	13.3 µg/mL (≈ 20 µM)	0.1 ×10⁻⁶ cm/s		CC(=O)N[C@H](CC(=O)N[C@H](Cc1c[nH]c2ccccc12)C(=O)N[C@@H](CCCCN)CC(=O)N[C@H](CC(N)=O)[C@@H](C)O)Cc1ccccc1 [Compound 2, Ac—(S)-β^3-HPhe-(R)-Trp-(S)-β^3-HLys-(R), (R)—HThr-NH2]	
36.8 µg/mL (≈ 49.9 µM)	7.4 µg/mL (≈ 10 µM)	0.1 ×10⁻⁶ cm/s	2.7	C[C@H]1OC(=O)C[C@H]1NC(=O)C[C@H](CCCCN)NC(=O)[C@@H](Cc1c[nH]c2ccccc12)NC(=O)C[C@H](Cc1ccccc1)NC(=O)CCc1ccccc1 [Compound 10, Dihydrocinnemoyl-(S)-β^3-HPhe-(R)-Trp-(S)-β^3-HLys-(R)-4-amino-(R)-5-methyl-dihydro-furan-2-one]	
37.7 µg/mL (≈ 50 µM)	15.1 µg/mL (≈ 20 µM)	3.98 ×10⁻⁶ cm/s	2.7	C[C@@H](O)[C@@H](CC(N)=O)NC(=O)C[C@H](CCCCN)NC(=O)[C@@H](Cc1c[nH]c2ccccc12)NC(=O)C[C@H](Cc1ccccc1)NC(=O)CCc1ccccc1 [Compound 15, Dihydrocinnemoyl-(S)-β^3-HPhe-(R)-Trp-(S)-β^3-HLys-(R), (R)—HThr-NH2]	Papp [2, 13]: 6.31 ×10⁻⁶ cm/s; Papp [2, 12]: 12.6 ×10⁻⁶ cm/s
15.2 µg/mL (≈ 19.9 µM)	15.2 µg/mL (≈ 19.9 µM)	12.6 ×10⁻⁶ cm/s	4.2	CCCCCCCCC(=O)N[C@H](CC(=O)N[C@H](Cc1c[nH]c2ccccc12)C(=O)N[C@@H](CCCCN)CC(=O)N[C@H](CC(N)=O)[C@@H](C)O)Cc1ccccc1 [Compound 17, Nonanoyl-(S)-β^3-HPhe-(R)-Trp-(S)-β^3-HLys-(R), (R)—HThr-NH2]	Papp [2, 13]: 2.51 ×10⁻⁶ cm/s
16.2 µg/mL (≈ 20 µM)	16.2 µg/mL (≈ 20 µM)	0.1 ×10⁻⁶ cm/s	4.1	CCN(CC)C(=O)C[C@@H](NC(=O)C[C@H](CCCCN)NC(=O)[C@@H](Cc1c[nH]c2ccccc12)NC(=O)C[C@H](Cc1ccccc1)NC(=O)CCc1ccccc1)C(C)C [Compound 24, Dihydrocinnemoyl-(S)-β^3-HPhe-(R)-Trp-(S)-β^3-HLys-(R)-β^3-Leu-diethyl-amide]	
127 µg/mL (≈ 200 µM)				CCCCCNC(=O)C[C@H](CCCCN)NC(=O)[C@@H](Cc1c[nH]c2ccccc12)NC(=O)C[C@H](Cc1ccccc1)NC(=O)CC [Compound 50]	water solubility (in words) [1]: medium to good; logP [3, 10]: 3.4

From US20090305995A1, “AGONISTS AND ANTAGONISTS OF THE SOMATOSTATIN RECEPTOR” (Novartis AG, priority 2004, published 2009)
